Reference: publication PMC9950205, “Efficacy, safety, and pharmacokinetics of teduglutide in adult Japanese patients with short bowel syndrome and intestinal failure: two phase III studies with an extension” (Surgery Today, 2022)

Test system: adult Japanese patients with SBS-IF
Assay: Parenteral support (PS) requirements in phase III studies TED-C14-004, SHP633-306 and extension SHP633-307, teduglutide 0.05 mg/kg SC once daily
Type: in vivo, human
Settings: for Patients with reduction in weekly PS volume of ≥ 20% from baseline at both weeks 20 and 24: 0.05 mg/kg SC once daily; for Patients whose PS volume decreased by ≥ 20%: 0.05 mg/kg/day
Description: As in the previous STEPS-1 study, patients participating in the core studies (TED-C14-004 and SHP633-306) underwent an optimization (2–8 weeks) and stabilization (4–8 weeks) period before initiation of treatment with teduglutide, during which PS was adjusted with the goal of achieving a stable target urine output of 1.0–2.0 L/day. All participating patients received teduglutide 0.05 mg/kg SC once daily throughout these three studies. PS was adjusted according to an algorithm based on the change from baseline in urine output and other assessments of fluid balance and nutrition status; the PS adjustment algorithm required reductions in PS if the urine output rose more than 10% above baseline. Patients had study visits at weeks 2 and 4, after which visits were held monthly during TED-C14-004 and SHP633-306. During SHP633-307, patients from SHP633-306 had monthly study visits throughout the 24 total months of treatment and then at 3-month intervals thereafter, and patients from TED-C14-004 had visits at 3-month intervals. The end-of-study assessments for SHP633-306 and TED-C14-004 were combined with the first visit of SHP633-307. SHP633-307 is ending soon with the approval of teduglutide in Japan.
Efficacy endpoints were defined in an analogous manner to previous pivotal studies. These included a clinically meaningful reduction in weekly PS volume of ≥ 20% [17] measured between baseline and both 20 and 24 weeks for TED-C14-004 and SHP633-306, and a continued reduction in weekly PS volume of ≥ 20% from the baseline in core studies at each scheduled visit until the last visit before the interim data cut-off of SHP633-307. Other efficacy endpoints included changes in absolute and percentage weekly PS volumes from the baseline in the core studies at each study visit, the number of days per week of PS, the number of patients who achieved enteral autonomy at the end of treatment or the data cut-off, and the changes in plasma citrulline levels from baseline in the core studies. The primary efficacy data were derived from patient diaries and compared against investigator-prescribed data captured in electronic case report forms.
Efficacy was evaluated between baseline and 24 weeks in TED-C14-004 and SHP633-306 and between baseline and 30 months in […]. Among patients who entered SHP633-307, the total follow-up periods, including the prior studies, were up to 14–57 months of total teduglutide exposure for patients from SHP633-306 and TED-C14-004.
Post hoc analyses of PS volume reductions in patients with Crohn’s disease, with and without a stoma, were performed for TED-C14-004.

[1] = 12 months, patients from SHP633-306, n = 4, mean ± SD
[2] = 24 weeks, SHP633-306, n = 6, mean ± SD
[3] = 24 weeks, TED-C14-004, n = 9, mean ± SD
[4] = 30 months, TED-C14-004, n = 7, mean ± SD
[5] = 39 months, patients from TED-C14-004 in extension study, n = 5, mean ± SD
[6] = interim data cut-off, patients from TED-C14-004 in extension study, n = 3, mean ± SD
[7] = last visit before interim data cut-off of SHP633-307, patients from SHP633-306, n = 2, mean ± SD
[8] = post hoc, TED-C14-004, patients with Crohn’s disease, 24 weeks, n = 7, mean ± SD
[9] = post hoc, TED-C14-004, patients with Crohn’s disease, 30 months, n = 6, mean ± SD
[10] = post hoc, TED-C14-004, patients with a stoma, 24 weeks, n = 6, mean ± SD
[11] = post hoc, TED-C14-004, patients with a stoma, 30 months, n = 5, mean ± SD
[12] = post hoc, TED-C14-004, patients without a stoma, 24 weeks, n = 3, mean ± SD
[13] = post hoc, TED-C14-004, patients without a stoma, 30 months, n = 2, mean ± SD

CC[C@H](C)[C@H](NC(=O)[C@H](Cc1ccccc1)NC(=O)[C@H](CC(=O)O)NC(=O)[C@H](CCCNC(=N)N)NC(=O)[C@H](C)NC(=O)[C@H](C)NC(=O)[C@H](CC(C)C)NC(=O)[C@H](CC(N)=O)NC(=O)[C@H](CC(=O)O)NC(=O)[C@H](CC(C)C)NC(=O)[C@@H](NC(=O)[C@@H](NC(=O)[C@H](CC(N)=O)NC(=O)[C@H](CCSC)NC(=O)[C@H](CCC(=O)O)NC(=O)[C@H](CC(=O)O)NC(=O)[C@H](CO)NC(=O)[C@H](Cc1ccccc1)NC(=O)[C@H](CO)NC(=O)CNC(=O)[C@H](CC(=O)O)NC(=O)CNC(=O)[C@@H](N)Cc1c[nH]cn1)[C@@H](C)O)[C@@H](C)CC)C(=O)N[C@@H](CC(N)=O)C(=O)N[C@@H](Cc1c[nH]c2ccccc12)C(=O)N[C@@H](CC(C)C)C(=O)N[C@H](C(=O)N[C@@H](CCC(N)=O)C(=O)N[C@H](C(=O)N[C@@H](CCCCN)C(=O)N[C@H](C(=O)N[C@H](C(=O)N[C@@H](CC(=O)O)C(=O)O)[C@@H](C)O)[C@@H](C)CC)[C@@H](C)O)[C@@H](C)CC [teduglutide]
PS volume decrease from baseline [1]: 7.3 ± 6.5 L/week
PS volume percent change from baseline [1]: −51.6% ± 28.5%
PS volume decrease from baseline [2]: 3.3 ± 3.6 L/week
PS volume percent change from baseline [2]: −25.6% ± 25.5%
Reduction in PS infusion frequency from baseline [2]: 0.5 ± 1.23 days/week
PS volume decrease from baseline [3]: 4.9 ± 4.8 L/week
PS volume percent change from baseline [3]: −30.1% ± 25.9%
Reduction in PS infusion frequency from baseline [3]: 1.0 ± 1.8 days/week
PS volume decrease from baseline [4]: 8.3 ± 5.9 L/week
PS volume percent change from baseline [4]: −53.5% ± 33.9%
Reduction in PS infusion frequency from baseline [4]: 2.1 ± 3.3 days/week
PS volume decrease from baseline [5]: 7.9 ± 4.5 L/week
PS volume percent change from baseline [5]: −63.6% ± 33.9%
Patients with reduction in weekly PS volume of ≥ 20% from baseline at both weeks 20 and 24 (SHP633-306, 4 of 7 patients): 57.1%
Patients with reduction in weekly PS volume of ≥ 20% from baseline at both weeks 20 and 24 (TED-C14-004, 5 of 11 patients): 45.5%
Patients with reduction in weekly PS volume of ≥ 20% from baseline at both weeks 20 and 24 (TED-C14-004 and SHP633-306 together, 9 of 18 patients): 50%
Patients with ≥ 20% reduction in weekly PS volume from baseline (after 30 months, TED-C14-004, 6 of 7 patients): 85.7%
Patients whose PS volume decreased by ≥ 20% (at 24 weeks, TED-C14-004 and SHP633-306): 9/18
PS volume percent change from baseline (at data cut-off in SHP633-307, all patients, mean ± SD): −57.08 ± 28.49%
Patients who achieved enteral autonomy (by 30 months, TED-C14-004, 2 of 8 patients): 25%
Patients whose PS volume decreased by ≥ 20% (by data cut-off in SHP633-307): all 11 patients
Patients with ≥ 20% reduction in weekly PS volume (by the end of TED-C14-004, maintained to last visit before data cut-off in the extension study): all patients
Patients who maintained ≥ 20% reduction in PS volume from baseline at each scheduled visit to the last visit before data cut-off (extension study SHP633-307, patients from SHP633-306): All patients
Patients who achieved enteral autonomy (first 24 weeks, SHP633-306 and TED-C14-004): No patients
Reduction in PS infusion frequency from baseline (interim data cut-off of extension study, patients from SHP633-306, mean ± SD): 1.9 ± 2.3 days/week
PS volume decrease from baseline [6]: 11.5 ± 3.7 L/week
PS volume percent change from baseline [6]: −63.57% ± 32.0%
PS volume decrease from baseline [7]: 11.7 ± 8.6 L/week
PS volume percent change from baseline [7]: −76.4% ± 25.9%
PS volume decrease from baseline [8]: 5.3 ± 5.4 L/week
PS volume percent change from baseline [8]: −31.9% ± 28.9%
PS volume decrease from baseline [9]: 9.3 ± 5.8 L/week
PS volume percent change from baseline [9]: −59.4% ± 32.9%
PS volume decrease from baseline [10]: 6.1 ± 5.5 L/week
PS volume percent change from baseline [10]: −35.3% ± 30.1%
PS volume decrease from baseline [11]: 10.7 ± 5.4 L/week
PS volume percent change from baseline [11]: −65.2% ± 33.2%
PS volume decrease from baseline [12]: 2.7 ± 1.8 L/week
PS volume percent change from baseline [12]: −19.6% ± 13.1%
PS volume decrease from baseline [13]: 2.5 ± 0.2 L/week
PS volume percent change from baseline [13]: −24.3% ± 8.7%
Maintenance of enteral autonomy (the 2 patients of TED-C14-004 with enteral autonomy, throughout SHP633-307 until interim data cut-off): remained off PS
Reduction in PS infusion frequency from baseline (up to the end of the extension study, patients from TED-C14-004, mean ± SD): 2.2 ± 3.3 days/week
